Data published in US20130225412A1, “SILICON NANOCARRIER FOR DELIVERY OF DRUG, PESTICIDES AND HERBICIDES , AND FOR WASTE WATER TREATMENT” (priority 2012, published 2013).

Test: Release from loaded diatomaceous earth measured by Nano Drop spectrophotometer
Format: physicochemical
Details: for start of release after loading / time of peak release: release pattern measured by NanoDrop
Experimental: According to embodiments herein, the diatom structure and drug loading capacity can vary for different kind of medicines. For example for anticancer Fluorouracil (5-FU or f5U) a master mix of 50 mg/ml was prepared. 0.8 ml of this master mix was added to 200 ml pure ethanol. 0.6 g diatomaceous earth (diatom cell wall) was added to this mixture and was left to be stirred for 3 hours with 200 rpm. Finally after filtration, diatom cell wall was washed once with methanol. 12 hours later at room temperature diatom cell wall were dried and loaded with Fluorouracil (5-FU or f5U).
Final concentration of 200 mg/ml of Gallic acid in Methanol/Diatomaceous Earth was prepared. To ensure that none of the Gallic acid was left on the outer surface of nano silicon, it washed by Methanol. After his, its release in water by interval of 2 hours was measured at the wavelength of 270 nm.
Evaluation of Benomyl fungicide release by nano Drop Spectrophotometer: Material and methods were identically same as Gallic Acid. After measuring all ODs, release calibration curve was drawn. […] With respect to FIG. 5, it is seen that the Benomyl releases after 12 hours of loading and gets to its peak release after 40 hours and the release decreases sharply. This is a kind of controlled release.
5-flouracil release pattern by nano Drop Spectrophotometer was evaluated. […] With respect to FIG. 6, it can be seen that the drug 5-Florouracil releases after 8 hours from the loading starts and 16 hours after gets peak release and then fall of gradually. This is a kind of controlled release.
Progesterone release pattern by nano Drop Spectrophotometer was evaluated.

| start of release after loading | time of peak release | optical density (ODs) measures (release in water, interval of 2 hours, wavelength 270 nm, loaded in Diatomaceous Earth) | SMILES | release in water (loaded in Diatomaceous Earth, washed by Methanol) |
| --- | --- | --- | --- | --- |
| 4 h | 28 h | – | CC(=O)[C@H]1CC[C@H]2[C@@H]3CCC4=CC(=O)CC[C@]4(C)[C@H]3CC[C@]12C [Progesterone] | – |
| 8 h | 16 h | – | O=c1[nH]cc(F)c(=O)[nH]1 [fluorouracil] | – |
| – | – | zero | O=C(O)c1cc(O)c(O)c(O)c1 [Gallic acid] | none of the Gallic acid has been released in water |

| SMILES | start of release after loading | time of peak release | optical density (ODs) measures (release in water, interval of 2 hours, wavelength 270 nm, loaded in Diatomaceous Earth) | release in water (loaded in Diatomaceous Earth, washed by Methanol) |
| --- | --- | --- | --- | --- |
| CCCCNC(=O)n1c(NC(=O)OC)nc2ccccc21 [Benomyl] | 12 h | 40 h | – | – |
